What all share (type): in vivo
In assay [1] the test system is Alopecurus myosuroides (ALOMY). As to the kind of experiment: Pre-emergence biological efficacy, glasshouse pot test. Conditions: 312 h, 1,000 g/ha, evaluated after 13 days, 100=total damage, 0=no damage, read-out: Percentage damage caused to weed species, pre-emergence, ALOMY. In short, it runs like this:
(§1)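 Visual 0–100 injury scale read 13 days post-spray. Dose 1000 or 250 g/ha, applied to soil one day after sowing, before emergence.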

The test system of assay [2] is Amaranthus retroflexus (AMARE). The description is as above. Conditions: 312 h, 1,000 g/ha, evaluated after 13 days, 100=total damage, 0=no damage, read-out: Percentage damage caused to weed species, pre-emergence, AMARE. In short, it runs like this: as §1
The subject of assay [3] is Echinochloa crus-galli (ECHCG). The assay is described as above. As to conditions: 312 h, 1,000 g/ha, evaluated after 13 days, 100=total damage, 0=no damage, read-out: Percentage damage caused to weed species, pre-emergence, ECHCG. In short, it runs like this: as §1
Assay [4] deals with Ipomea hederaceae (IPOHE). The assay is described as above. Conditions: Ipomoea hederacea, 312 h, 1,000 g/ha, evaluated after 13 days, 100=total damage, 0=no damage, read-out: Percentage damage caused to weed species, pre-emergence, IPOHE. In short, it runs like this: as §1
The subject of assay [5] is Setaria faberi (SETFA). Described as above. Conditions: 312 h, 1,000 g/ha, evaluated after 13 days, 100=total damage, 0=no damage, read-out: Percentage damage caused to weed species, pre-emergence, SETFA. In short, it runs like this: as §1
Assay [6] has as its system Solanum nigrum (SOLNI). The description is as above. Conditions: 312 h, 1,000 g/ha, evaluated after 13 days, 100=total damage, 0=no damage, read-out: Percentage damage caused to weed species, pre-emergence, SOLNI. In short, it runs like this: as §1
Assay [7] relates to Alopecurus myosuroides (ALOMY). In words: Post-emergence biological efficacy, glasshouse pot test. As to conditions: 312 h, 1,000 g/ha, evaluated after 13 days, 100=total damage, 0=no damage, read-out: Percentage damage caused to weed species, post-emergence, ALOMY. In short, it runs like this:
(§2)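 Post-emergence spray, 1000 or 250 g/ha, acetone/water 50:50 + 0.5% Tween 20; plants 8 d old from sowing; glasshouse 24/16 °C, 14 h light, 65% RH, watered twice daily; visual damage 0–100 at 13 d.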

The subject of assay [8] is Amaranthus retroflexus (AMARE). Described as above. Conditions: 312 h, 1,000 g/ha, evaluated after 13 days, 100=total damage, 0=no damage, read-out: Percentage damage caused to weed species, post-emergence, AMARE. In short, it runs like this: as §2
Assay [9] has as its system Echinochloa crus-galli (ECHCG). The description is as above. Conditions: 312 h, 1,000 g/ha, evaluated after 13 days, 100=total damage, 0=no damage, read-out: Percentage damage caused to weed species, post-emergence, ECHCG. In short, it runs like this: as §2
Assay [10] relates to Ipomea hederaceae (IPOHE). The description is as above. Conditions: Ipomoea hederacea, 312 h, 1,000 g/ha, evaluated after 13 days, 100=total damage, 0=no damage, read-out: Percentage damage caused to weed species, post-emergence, IPOHE. In short, it runs like this:
as §2

The subject of assay [11] is Setaria faberi (SETFA). The assay is described as above. As to conditions: 312 h, 1,000 g/ha, evaluated after 13 days, 100=total damage, 0=no damage, read-out: Percentage damage caused to weed species, post-emergence, SETFA. In short, it runs like this:
as §2

The test system of assay [12] is Solanum nigrum (SOLNI). The description is as above. As to conditions: 312 h, 1,000 g/ha, evaluated after 13 days, 100=total damage, 0=no damage, read-out: Percentage damage caused to weed species, post-emergence, SOLNI. In short, it runs like this:
as §2

The values below come from patent US20120100990A1, “4 -AMINOPICOLINATES AND THEIR USE AS HERBICIDES” (SYNGENTA CROP PROTECTION LLC, priority 2009, published 2012).

Regarding `COC(=O)c1nc(Cl)cc(NCc2ccncc2)c1Cl` [Compound 80-2, 3,6-Dichloro-4-(pyridin-4-ylmethylamino)-pyridine-2-carboxylic acid methyl ester], the pest or weed control at 1000 g/ha in [1] stood at 70%; in assay [2], 100%; in assay [3] it was 20%; in [4], 90%; in the assay with Setaria faberi (SETFA) [5], 80%; in the assay on Solanum nigrum (SOLNI) [6], 100%. Further, the pest or weed control at 1000 g/ha in assay [7] is 40%; in assay [8], 90%; in assay [9], 60%; in assay [10], 70%; in the assay with Setaria faberi (SETFA) [11], 50%; with Solanum nigrum (SOLNI) [12] it was 100%.

Regarding `COC(=O)c1nc(Cl)cc(NCc2cnc(C)cn2)c1Cl` [Compound 81-2, 3,6-Dichloro-4-[(5-methylpyrazin-2-ylmethyl)-amino]-pyridine-2-carboxylic acid methyl ester], the pest or weed control at 1000 g/ha is 70% in assay [1]; 100% in [2]; 70% in assay [3]; 90% in [4]; 70% with Setaria faberi (SETFA) [5]; 100% in the assay with Solanum nigrum (SOLNI) [6]. For the same compound, the pest or weed control at 1000 g/ha is 40% in assay [7]; 100% in assay [8]; 40% in assay [9]; 60% in assay [10]; 80% with Setaria faberi (SETFA) [11]; 100% with Solanum nigrum (SOLNI) [12].

On to `COC(=O)c1nc(Cl)cc(NCc2ccco2)c1Cl` [Compound 26-2, 3,6-dichloro-4-[(furan-2-ylmethyl)-amino]-pyridine-2-carboxylic acid methyl ester], for which the pest or weed control at 1000 g/ha came to 70% in assay [1]; 100% in assay [2]; 30% in assay [3]; 90% in assay [4]; 90% in the assay with Setaria faberi (SETFA) [5]; 100% in the assay with Solanum nigrum (SOLNI) [6]. For the same compound, the pest or weed control at 1000 g/ha came out at 40% in [7]; 100% in assay [8]; 30% in assay [9]; 60% in [10]; 90% with Setaria faberi (SETFA) [11]; 100% in the assay with Solanum nigrum (SOLNI) [12].

For `COC(=O)c1nc(Cl)cc(NCc2ccco2)c1Br` [Compound 26-17, 3-Bromo-6-chloro-4-[(furan-2-ylmethyl)-amino]-pyridine-2-carboxylic acid methyl ester], the pest or weed control at 1000 g/ha in assay [1] was determined as 50%; in assay [2], 100%; in assay [3], 50%; in assay [4], 100%; in the assay on Setaria faberi (SETFA) [5], 80%; in the assay on Solanum nigrum (SOLNI) [6] it was 100%. The pest or weed control at 1000 g/ha in assay [7] came out at 70%; in [8], 100%; in assay [9], 60%; in [10] it was 60%; with Setaria faberi (SETFA) [11], 80%; with Solanum nigrum (SOLNI) [12], 90%.

In the case of `COC(=O)c1nc(Cl)cc(NCc2ccccc2F)c1Cl` [Compound 6-2, 3,6-Dichloro-4-[(2-fluorophenylmethyl)-amino]-pyridine-2-carboxylic acid methyl ester], the pest or weed control at 1000 g/ha is 70% in assay [1]; 100% in [2]; 60% in assay [3]; 90% in assay [4]; 80% in the assay with Setaria faberi (SETFA) [5]; 100% in the assay on Solanum nigrum (SOLNI) [6]. In addition, the pest or weed control at 1000 g/ha worked out at 60% in assay [7]; 100% in assay [8]; 40% in [9]; 70% in assay [10]; 90% in the assay with Setaria faberi (SETFA) [11]; 100% in the assay with Solanum nigrum (SOLNI) [12].

In the case of `COC(=O)c1nc(Cl)cc(NCc2ncccc2C)c1Cl` [Compound 33-2, 3,6-Dichloro-4-[(3-methyl-pyridin-2-ylmethyl)-amino] pyridine-2-carboxylic acid methyl ester], the pest or weed control at 1000 g/ha in assay [1] is 60%; in [2], 100%; in [3], 50%; in assay [4] it was 100%; in the assay with Setaria faberi (SETFA) [5] it was 80%; in the assay with Solanum nigrum (SOLNI) [6] it was 100%. Also, the pest or weed control at 1000 g/ha was 60% in assay [7]; 100% in assay [8]; 60% in [9]; 80% in assay [10]; 70% in the assay with Setaria faberi (SETFA) [11]; 100% in the assay on Solanum nigrum (SOLNI) [12].

In the case of `C=Cc1c(C(=O)OC)nc(Cl)c(Cl)c1NCc1ncccc1Cl` [Compound 32-39, 4-[(3-Chloro-pyridin-2-ylmethyl)-amino]-5,6-dichloro-3-ethenyl-pyridine-2-carboxylic acid methyl ester], the pest or weed control at 1000 g/ha in [1] was determined as 0%; in assay [2] it was 100%; in assay [3], 0%; in assay [4], 50%; with Setaria faberi (SETFA) [5] it was 0%; in the assay with Solanum nigrum (SOLNI) [6], 60%. For the same compound, the pest or weed control at 1000 g/ha was found to be 10% in assay [7]; 100% in assay [8]; 20% in assay [9]; 40% in assay [10]; 50% with Setaria faberi (SETFA) [11]; 90% in the assay on Solanum nigrum (SOLNI) [12].

Consider `C=Cc1c(NCc2ccccc2[N+](=O)[O-])cc(Cl)nc1C(=O)OC` [Compound 15-12, 6-Chloro-3-ethenyl-4-[(2-nitrophenylmeth-yl)-amino]-pyridine-2-carboxylic acid methyl ester], for which the pest or weed control at 1000 g/ha in assay [1] is 70%; in assay [2] it was 100%; in assay [3], 90%; in assay [4], 100%; in the assay with Setaria faberi (SETFA) [5], 80%; in the assay on Solanum nigrum (SOLNI) [6] it was 100%. The pest or weed control at 1000 g/ha in assay [7] worked out at 80%; in assay [8], 100%; in [9], 70%; in assay [10], 60%; with Setaria faberi (SETFA) [11], 100%; in the assay on Solanum nigrum (SOLNI) [12], 90%.

For the compound `COC(=O)c1nc(Cl)cc(NCc2ccccc2)c1Cl` [Compound 2-2, 3,6-Dichloro-4-phenylmethyl-amino-pyridine-2-carboxylic acid methyl ester], the pest or weed control at 1000 g/ha in assay [1] worked out at 60%; in assay [2], 100%; in assay [3], 30%; in assay [4] it was 90%; in the assay on Setaria faberi (SETFA) [5], 80%; in the assay with Solanum nigrum (SOLNI) [6], 100%. In addition, the pest or weed control at 1000 g/ha was 50% in assay [7]; 100% in [8]; 60% in assay [9]; 70% in [10]; 80% with Setaria faberi (SETFA) [11]; 100% in the assay on Solanum nigrum (SOLNI) [12].
